Measured values as given in the supplement of paper PMC4862054.
“And” between values parts separate entries of the source, which are not always exact repeats. Identical values can stand only once.

Tests used:
Settings in all cases: incubation time: 72 h
[1] = tested on: HCC1599; assay: drug sensitivity score (DSS), CellTiter-Glo (DSS (AUC-based score)); higher = stronger drug effect (viability inhibition or cytotoxicity); extreme values may be limits of the assay
Method in brief: (§1)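 The area under the fitted dose-response curve was used to calculate the drug sensitivity score. Cells from breast cancer lines were incubated for 72 h in 384-well plates with compound at 5 concentrations spaced 10-fold over a 10,000-fold range specific to each compound. Plates were read for CellTox Green and then CellTiter-Glo, and normalised to 0.1 % DMSO and a positive kill control.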

[2] = tested on: HCC1937; assay: as above
Method in brief: as §1

[3] = tested on: MFM-223; assay: as above
Method in brief: as §1

[4] = tested on: CAL-120; assay: normalised viability (% of control), CellTiter-Blue; higher = more viable cells (about 100 = DMSO control)
Method in brief: (§2)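 The reported quantity is normalised viability at a single listed concentration of the series. Compound in 5 µl medium was pre-dispensed into 384-well plates and 20 µl of breast cancer cell suspension was added for 72 h. A 2 h, 37 °C CellTiter-Blue step (2.5 µl) preceded fluorescence reading at 560/590 nm, and plates were normalised to vehicle (100) and a positive kill control (0).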

[5] = tested on: SK-BR-3; assay: as above
Method in brief: as §2

[6] = tested on: MDA-MB-468; assay: as above
Method in brief: as §2

[7] = tested on: HDQ-P1; assay: as above
Method in brief: as §2

[8] = tested on: MDA-MB-436; assay: as above
Method in brief: as §2

[9] = tested on: BT-549; assay: as above
Method in brief: as §2

[10] = tested on: HCC1143; assay: as above
Method in brief: as §2

[11] = tested on: BT-474; assay: as above
Method in brief: as §2

[12] = tested on: CAL-120; assay: normalised viability (% of control), CellTiter-Blue; higher = more viable cells (about 100 = DMSO control); remark: listed apart in the source
Protocol: (§3)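 DSRT, CellTiter-Blue viability, 72 h incubation. Signal is normalised to DMSO and benzethonium chloride controls. Value is the normalised response at dose 3.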

[13] = tested on: SK-BR-3; assay: as above; remark: listed apart in the source
Protocol: as §3

[14] = tested on: Hs578T; assay: as above
Protocol: as §3

[15] = tested on: MDA-MB-453; assay: as above
Protocol: as §3

[16] = tested on: MDA-MB-468; assay: as above; remark: listed apart in the source
Protocol: as §3

[17] = tested on: CAL-51; assay: as above
Protocol: as §3

[18] = tested on: CAL-85-1; assay: as above
Protocol: as §3

[19] = tested on: HCC1599; assay: as above
Protocol: as §3

[20] = tested on: CAL-148; assay: as above
Protocol: as §3

[21] = tested on: HDQ-P1; assay: as above; remark: listed apart in the source
Protocol: as §3

[22] = tested on: DU-4475; assay: as above
Protocol: as §3

[23] = tested on: MDA-MB-436; assay: as above; remark: listed apart in the source
Protocol: as §3

[24] = tested on: BT-549; assay: as above; remark: listed apart in the source
Protocol: as §3

[25] = tested on: HCC1143; assay: as above; remark: listed apart in the source
Protocol: as §3

[26] = tested on: HCC1937; assay: as above
Protocol: as §3

[27] = tested on: MFM-223; assay: as above
Protocol: as §3

[28] = tested on: BT-474; assay: as above; remark: listed apart in the source
Protocol: as §3

[29] = tested on: MDA-MB-231; assay: as above
Protocol: as §3

CC(=O)O[C@@]12CO[C@@H]1C[C@H](O)[C@@]1(C)C(=O)[C@H](O)C3=C(C)[C@@H](OC(=O)[C@H](O)[C@@H](NC(=O)OC(C)(C)C)c4ccccc4)C[C@@](O)([C@@H](OC(=O)c4ccccc4)[C@H]21)C3(C)C [Docetaxel]
Settings | drug sensitivity score
[1] | 16.7
[2] | 10.6
[3] | 16.7

Settings | normalised viability
[4], 1 nM | 84.9% and 81.7%
[4], 100 nM | 25% and 23.5%
[4], 1000 nM | 25.8% and 23.3%
[5], 1 nM | 85.7% and 86.8%
[5], 100 nM | 19% and 14.4%
[5], 1000 nM | 18.3% and 14.1%
[6], 1 nM | 69.7% and 68.9%
[6], 100 nM | 53% and 46.7%
[6], 1000 nM | 46.3% and 52.4%
[7], 0.3 nM | 86.7% and 84.7%
[7], 3 nM | 58.6% and 72.4%
[8], 1 nM | 85% and 80.1%
[8], 100 nM | 19.3% and 34%
[8], 1000 nM | 38.6% and 43.8%
[9], 1 nM | 64.5% and 58.7%
[9], 100 nM | 24.3% and 19%
[9], 1000 nM | 24.4% and 20.3%
[10], 1 nM | 79.8% and 66.2%
[10], 100 nM | 34.7% and 31.3%
[10], 1000 nM | 35.3% and 33%
[11], 1 nM | 91.6% and 101%
[11], 100 nM | 21.4% and 27.7%
[11], 1000 nM | 16.9% and 28.5%
[12], 10 nM | 32.1% and 30.1%
[13], 10 nM | 6.91% and 8.46%
[14], 10 nM | 13.1% and 18.8%
[15], 1 nM | 85.9% and 66.5%
[16], 10 nM | 50% and 41.6%
[17], 1 nM | 101% and 90.4%
[18], 1 nM | 88.3% and 86.5%
[19], 10 nM | 110% and 108%
[20], 1 nM | 99.2% and 81.9%
[21], 1 nM | 78.7% and 71.2%
[22], 1 nM | 86% and 95.2%
[23], 10 nM | 51.1% and 52%
[24], 10 nM | 28% and 25.4%
[25], 10 nM | 51.7% and 35.2%
[26], 10 nM | 32.2% and 27.2%
[27], 10 nM | 59.6% and 53.8%
[28], 10 nM | 49.9% and 46.2%
[29], 10 nM | 34.8% and 32.6%

C[C@]12CC[C@@H]3c4ccc(OC(=O)N(CCCl)CCCl)cc4CC[C@H]3[C@@H]1CC[C@@H]2O [Estramustine]
Settings | drug sensitivity score
[1] | 0
[2] | 0
[3] | 0

Settings | normalised viability [%]
[4], 0.99 nM | 113
[4], 99 nM | 107
[4], 990 nM | 105
[5], 0.99 nM | 99.1
[5], 99 nM | 97.5
[5], 990 nM | 101
[6], 0.99 nM | 102
[6], 99 nM | 103
[6], 990 nM | 117
[7], 0.297 nM | 107
[7], 2.97 nM | 106
[7], 9.9 nM | 109
[8], 0.99 nM | 95
[8], 99 nM | 96.1
[8], 990 nM | 99.4
[9], 0.99 nM | 82.7
[9], 99 nM | 89.6
[9], 990 nM | 87.2
[10], 0.99 nM | 109
[10], 99 nM | 106
[10], 990 nM | 114
[11], 0.99 nM | 116
[11], 99 nM | 115
[11], 990 nM | 116
[12], 9.9 nM | 102
[13], 9.9 nM | 106
[14], 9.9 nM | 102
[15], 0.99 nM | 100
[16], 9.9 nM | 108
[17], 0.99 nM | 88.3
[18], 0.99 nM | 111
[19], 9.9 nM | 91.4
[20], 0.99 nM | 113
[21], 0.99 nM | 109
[22], 0.99 nM | 85.1
[23], 9.9 nM | 92.1
[24], 9.9 nM | 79.8
[25], 9.9 nM | 105
[26], 9.9 nM | 101
[27], 9.9 nM | 95.9
[28], 9.9 nM | 113
[29], 9.9 nM | 93.8

CC1(C)CNc2cc(NC(=O)c3cccnc3NCc3ccncc3)ccc21 [Motesanib]
Settings | drug sensitivity score
[1] | 0
[2] | 0
[3] | 0

Settings | normalised viability [%]
[4], 10 nM | 74.4
[4], 1000 nM | 78.3
[4], 10000 nM | 82.4
[5], 10 nM | 83.3
[5], 1000 nM | 88.9
[5], 10000 nM | 78.9
[6], 10 nM | 88.3
[6], 1000 nM | 85.3
[6], 10000 nM | 88.2
[7], 3 nM | 76.7
[7], 30 nM | 95.1
[7], 100 nM | 86.6
[8], 10 nM | 72.5
[8], 1000 nM | 63
[8], 10000 nM | 73
[9], 10 nM | 79.1
[9], 1000 nM | 93.5
[9], 10000 nM | 79.2
[10], 10 nM | 79.9
[10], 1000 nM | 82.4
[10], 10000 nM | 70.4
[11], 10 nM | 109
[11], 1000 nM | 101
[11], 10000 nM | 103
[12], 100 nM | 71.9
[13], 100 nM | 79.3
[14], 100 nM | 90.8
[15], 10 nM | 82.7
[16], 100 nM | 113
[17], 10 nM | 111
[18], 10 nM | 91.4
[19], 100 nM | 101
[20], 10 nM | 82.5
[21], 10 nM | 88.1
[22], 10 nM | 90.4
[23], 100 nM | 79.7
[24], 100 nM | 88.1
[25], 100 nM | 79.1
[26], 100 nM | 90.5
[27], 100 nM | 80.2
[28], 100 nM | 87.7
[29], 100 nM | 79.2

CC[C@@H]1C(=O)OC[C@@H]1Cc1cncn1C [Pilocarpine]
Settings | drug sensitivity score
[1] | 0
[2] | 0
[3] | 0

Settings | normalised viability [%]
[4], 40 nM | 85.2
[4], 4000 nM | 107
[4], 40000 nM | 113
[5], 40 nM | 106
[5], 4000 nM | 115
[5], 40000 nM | 136
[6], 40 nM | 95.2
[6], 4000 nM | 99
[6], 40000 nM | 109
[7], 12 nM | 123
[7], 120 nM | 137
[7], 400 nM | 118
[8], 40 nM | 95.6
[8], 4000 nM | 95
[8], 40000 nM | 104
[9], 40 nM | 95.5
[9], 4000 nM | 114
[9], 40000 nM | 100
[10], 40 nM | 87.5
[10], 4000 nM | 90.3
[10], 40000 nM | 88.4
[11], 40 nM | 108
[11], 4000 nM | 158
[11], 40000 nM | 116
[12], 400 nM | 107
[13], 400 nM | 103
[14], 400 nM | 110
[15], 40 nM | 102
[16], 400 nM | 99.6
[17], 40 nM | 102
[18], 40 nM | 98
[19], 400 nM | 99.6
[20], 40 nM | 97.4
[21], 40 nM | 108
[22], 40 nM | 108
[23], 400 nM | 105
[24], 400 nM | 111
[25], 400 nM | 90.1
[26], 400 nM | 95.1
[27], 400 nM | 92.8
[28], 400 nM | 116
[29], 400 nM | 93.3
